# Data: patent US9469650B2, “Melampomagnolide B derivatives” (BOARD OF TRUSTEES OF THE UNIVERSITY OF ARKANSAS, priority 2013, dated 2016)
# Columns and labels:
# [1] = test system: K-562; test: panel of 60 human tumor cell lines, growth inhibition (Leukemia); conditions: K-562
# [2] = test system: LOX IMVI; test: panel of 60 human tumor cell lines, growth inhibition (Melanoma)
# [3] = test system: M14; test: as above; conditions: M14
# [4] = test system: SF-268; test: panel of 60 human tumor cell lines, growth inhibition (CNS Cancer); conditions: SF-268
# [5] = test system: SF-295; test: as above; conditions: SF-295
# [6] = test system: U251; test: as above; conditions: U251
# [7] = test system: COLO 205; test: panel of 60 human tumor cell lines, growth inhibition (Colon Cancer); conditions: COLO 205
# [8] = test system: SW-620; test: as above; conditions: SW-620
# [9] = test system: 786-0; test: panel of 60 human tumor cell lines, growth inhibition (Renal Cancer); conditions: 786-0
# [10] = test system: A498; test: as above; conditions: A498
# [11] = test system: CAKI-1; test: as above; conditions: CAKI-1
# [12] = test system: HS 578T; test: panel of 60 human tumor cell lines, growth inhibition (Breast Cancer); conditions: HS 578T
# [13] = test system: OVCAR-5; test: panel of 60 human tumor cell lines, growth inhibition (Ovarian Cancer); conditions: OVCAR-5
# [14] = test system: NCI/ADR-RES; test: as above
# [15] = test system: PC-3; test: panel of 60 human tumor cell lines, growth inhibition (Prostate Cancer); conditions: PC-3
# [16] = test system: DU-145; test: as above; conditions: DU-145
# [17] = test system: HOP-62; test: panel of 60 human tumor cell lines, growth inhibition (Non-Small Cell Lung Cancer); conditions: HOP-62
# [18] = test system: NCI-H226; test: as above; conditions: NCI-H226
# [19] = test system: NCI-H522; test: as above; conditions: NCI-H522
smiles,measurement,setting,value
C=C1C(=O)O[C@H]2[C@H]1CC/C(COC(=O)N1CCC(F)(F)CC1)=C\CC[C@@]1(C)O[C@@H]21 [JVM 2-66],GI50,[1],3.45 µM
same,TGI,[1],3.61E−5
same,Percent Growth,[1]; Log10 Concentration −4.0,−10%
same,Percent Growth,[1]; Log10 Concentration −5.0,13%
same,Percent Growth,[1]; Log10 Concentration −6.0,93%
same,Percent Growth,[1]; Log10 Concentration −7.0,95%
same,Percent Growth,[1]; Log10 Concentration −8.0,104%
same,GI50,[2],2.23 µM
same,TGI,[2],5.77E−6
same,Percent Growth,[2]; Log10 Concentration −4.0,−89%
same,Percent Growth,[2]; Log10 Concentration −5.0,−29%
same,Percent Growth,[2]; Log10 Concentration −6.0,92%
same,Percent Growth,[2]; Log10 Concentration −7.0,93%
same,Percent Growth,[2]; Log10 Concentration −8.0,96%
same,Percent Growth,[3]; Log10 Concentration −4.0,−85%
same,Percent Growth,[3]; Log10 Concentration −5.0,8%
same,Percent Growth,[3]; Log10 Concentration −6.0,85%
same,Percent Growth,[3]; Log10 Concentration −7.0,87%
same,Percent Growth,[3]; Log10 Concentration −8.0,96%
same,GI50,[4],10.7 µM
same,TGI,[4],2.47E−5
same,Percent Growth,[4]; Log10 Concentration −4.0,−84%
same,Percent Growth,[4]; Log10 Concentration −5.0,54%
same,Percent Growth,[4]; Log10 Concentration −6.0,95%
same,Percent Growth,[4]; Log10 Concentration −7.0,93%
same,Percent Growth,[4]; Log10 Concentration −8.0,95%
same,GI50,[5],12 µM
same,TGI,[5],2.49E−5
same,Percent Growth,[5]; Log10 Concentration −4.0,−96%
same,Percent Growth,[5]; Log10 Concentration −5.0,63%
same,Percent Growth,[5]; Log10 Concentration −6.0,91%
same,Percent Growth,[5]; Log10 Concentration −7.0,91%
same,Percent Growth,[5]; Log10 Concentration −8.0,95%
same,TGI,[6],2.66E−5
same,Percent Growth,[6]; Log10 Concentration −4.0,−99%
same,Percent Growth,[6]; Log10 Concentration −5.0,73%
same,Percent Growth,[6]; Log10 Concentration −6.0,92%
same,Percent Growth,[6]; Log10 Concentration −7.0,96%
same,Percent Growth,[6]; Log10 Concentration −8.0,96%
same,GI50,[7],2.06 µM
same,TGI,[7],4.17E−6
same,Percent Growth,[7]; Log10 Concentration −4.0,−93%
same,Percent Growth,[7]; Log10 Concentration −5.0,−62%
same,Percent Growth,[7]; Log10 Concentration −6.0,101%
same,Percent Growth,[7]; Log10 Concentration −7.0,96%
same,Percent Growth,[7]; Log10 Concentration −8.0,102%
same,GI50,[8],1.46 µM
same,TGI,[8],4.37E−6
same,Percent Growth,[8]; Log10 Concentration −4.0,−86%
same,Percent Growth,[8]; Log10 Concentration −5.0,−38%
same,Percent Growth,[8]; Log10 Concentration −6.0,67%
same,Percent Growth,[8]; Log10 Concentration −7.0,97%
same,Percent Growth,[8]; Log10 Concentration −8.0,99%
same,GI50,[9],3.67 µM
same,TGI,[9],1.50E−5
same,Percent Growth,[9]; Log10 Concentration −4.0,−81%
same,Percent Growth,[9]; Log10 Concentration −5.0,17%
same,Percent Growth,[9]; Log10 Concentration −6.0,93%
same,Percent Growth,[9]; Log10 Concentration −7.0,91%
same,Percent Growth,[9]; Log10 Concentration −8.0,97%
same,GI50,[10],1.59 µM
same,TGI,[10],6.87E−6
same,Percent Growth,[10]; Log10 Concentration −4.0,−93%
same,Percent Growth,[10]; Log10 Concentration −5.0,−13%
same,Percent Growth,[10]; Log10 Concentration −6.0,66%
same,Percent Growth,[10]; Log10 Concentration −7.0,73%
same,Percent Growth,[10]; Log10 Concentration −8.0,84%
same,GI50,[11],2.03 µM
same,TGI,[11],6.16E−6
same,Percent Growth,[11]; Log10 Concentration −4.0,−97%
same,Percent Growth,[11]; Log10 Concentration −5.0,−22%
same,Percent Growth,[11]; Log10 Concentration −6.0,82%
same,Percent Growth,[11]; Log10 Concentration −7.0,91%
same,Percent Growth,[11]; Log10 Concentration −8.0,97%
same,GI50,[12],13.5 µM
same,TGI,[12],7.06E−5
same,Percent Growth,[12]; Log10 Concentration −4.0,−10%
same,Percent Growth,[12]; Log10 Concentration −5.0,59%
same,Percent Growth,[12]; Log10 Concentration −6.0,89%
same,Percent Growth,[12]; Log10 Concentration −7.0,93%
same,Percent Growth,[12]; Log10 Concentration −8.0,93%
same,GI50,[13],4.25 µM
same,TGI,[13],1.60E−5
same,Percent Growth,[13]; Log10 Concentration −4.0,−83%
same,Percent Growth,[13]; Log10 Concentration −5.0,21%
same,Percent Growth,[13]; Log10 Concentration −6.0,99%
same,Percent Growth,[13]; Log10 Concentration −7.0,90%
same,Percent Growth,[13]; Log10 Concentration −8.0,96%
same,GI50,[14],5.22 µM
same,TGI,[14],2.08E−5
same,Percent Growth,[14]; Log10 Concentration −4.0,−65%
same,Percent Growth,[14]; Log10 Concentration −5.0,30%
same,Percent Growth,[14]; Log10 Concentration −6.0,99%
same,Percent Growth,[14]; Log10 Concentration −7.0,99%
same,Percent Growth,[14]; Log10 Concentration −8.0,100%
same,GI50,[15],10.8 µM
same,TGI,[15],2.41E−5
same,Percent Growth,[15]; Log10 Concentration −4.0,−89%
same,Percent Growth,[15]; Log10 Concentration −5.0,55%
same,Percent Growth,[15]; Log10 Concentration −6.0,97%
same,Percent Growth,[15]; Log10 Concentration −7.0,99%
same,Percent Growth,[15]; Log10 Concentration −8.0,101%
same,GI50,[16],2.44 µM
same,TGI,[16],8.35E−6
same,Percent Growth,[16]; Log10 Concentration −4.0,−100%
same,Percent Growth,[16]; Log10 Concentration −5.0,−7%
same,Percent Growth,[16]; Log10 Concentration −6.0,86%
same,Percent Growth,[16]; Log10 Concentration −7.0,100%
same,Percent Growth,[16]; Log10 Concentration −8.0,102%
same,GI50,[17],13.6 µM
same,TGI,[17],2.81E−5
same,Percent Growth,[17]; Log10 Concentration −4.0,−87%
same,Percent Growth,[17]; Log10 Concentration −5.0,71%
same,Percent Growth,[17]; Log10 Concentration −6.0,93%
same,Percent Growth,[17]; Log10 Concentration −7.0,92%
same,Percent Growth,[17]; Log10 Concentration −8.0,101%
same,TGI,[18],4.35E−6
same,Percent Growth,[18]; Log10 Concentration −4.0,−71%
same,Percent Growth,[18]; Log10 Concentration −5.0,−49%
same,Percent Growth,[18]; Log10 Concentration −6.0,87%
same,Percent Growth,[18]; Log10 Concentration −7.0,90%
same,Percent Growth,[18]; Log10 Concentration −8.0,102%
same,GI50,[19],1.25 µM
same,TGI,[19],2.75E−6
same,Percent Growth,[19]; Log10 Concentration −4.0,−80%
same,Percent Growth,[19]; Log10 Concentration −5.0,−81%
same,Percent Growth,[19]; Log10 Concentration −6.0,64%
same,Percent Growth,[19]; Log10 Concentration −7.0,92%
same,Percent Growth,[19]; Log10 Concentration −8.0,91%
